Patent publication US7378433B2, “N-[4-(heteroarylmethyl)phenyl]-heteroarylamines” (Janssen Pharmaceutica, N.V., priority 1996, dated 2008)
pIC50: −log10 of the molar value.

Tested on: RA-metabolism in MCF-7 human breast cancer cells
Assay: Inhibition of retinoic acid (RA) metabolism
Format: cell-based
Conditions: MCF7, concentration needed to reduce the amount of polar 3H-RA metabolites to 50% of the control, MCF-7 cells
Description: The property to delay the metabolism of retinoic acid can be evidenced in various in vitro and in vivo experiments. A particular in vitro procedure is described in example C.1 and tests the inhibitory activity of the compounds of formula (I) on the metabolism of retinoic acid in human breast cancer cells. The compounds of the present invention were also effective in suppressing induced vaginal keratinization effects in ovariectomized rats as is described in example C.2.
MCF-7 human breast cancer cells were grown as stock cultures according to art-known protocols. One day before the experiment, RA is added to the stock cultures to stimulate RA-metabolism. At the start of the experiment, cell suspensions were incubated in a tissue culture medium containing ^3H-RA as the substrate. Different concentrations of the test compound (dissolved in 1% DMSO) were added to the incubation mixtures, and at the end of the incubation, the unmetabolized RA is separated from its polar metabolites. The fraction containing the polar ^3H-labeled metabolites was collected and counted in a scintillation counter. For each experiment, a control and a blank incubation were run in parallel.

In the case of `CCC(CC)C(c1ccc(Nc2nc3ccccc3o2)cc1)n1cncn1` (centres unmarked) [Compound 56, N-[4-[2-ethyl-1-(1H-1,2,4-triazol-1-yl)butyl]phenyl]-2-benzoxazolamine], the pIC50 was > 8.00.

With `Cc1csc(Nc2ccc(C(C(C)C)n3ccnc3)cc2)n1` (racemic) [Compound 50, (±)-N-[4-[1-(1H-imidazol-1-yl)-2-methylpropyl]phenyl]-4-methyl-2-thiazolamine] the pIC50 was > 8.00.

In the case of `CC(C)C(c1ccc(Nc2nccs2)cc1)n1ccnc1` (racemic) [Compound 51, (±)-N-[4-[1-(1H-imidazol-1-yl)-2-methylpropyl]phenyl]-2-thiazolamine], the pIC50 was > 8.00.

In the case of `CCC(CC)C(c1ccc(Nc2nc3ccccc3s2)cc1)n1cncn1` (racemic) [Compound 25, (±)-N-[4-[2-ethyl-1-(1H-1,2,4-triazol-1-yl)butyl]phenyl]-2-benzothiazol-amine], the pIC50 was > 8.00.

For `c1ccc2sc(Nc3ccc(Cn4ccnc4)cc3)nc2c1` [Compound 24, N-[4-(1H-imidazol-1-ylmethyl)-phenyl]-2-benzothiazolamine], the pIC50 was > 8.00.
